Laboratory results as given in PubChem BioAssay (NCI).
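How tested: cells in 96-well plates exposed to compound for 48 hours at five concentrations. TGI denotes the concentration required for complete inhibition of growth.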

Tests used:
Test in all cases: NCI tumour cell line growth inhibition, 48 h
786-0 renal = test system: 786-0 renal
HCC-2998 colon = test system: HCC-2998 colon
MDA-N = test system: MDA-N
SK-OV-3 ovarian = test system: SK-OV-3 ovarian
SK-MEL-5 melanoma = test system: SK-MEL-5 melanoma
CAKI-1 renal = test system: CAKI-1 renal
LOX IMVI melanoma = test system: LOX IMVI melanoma
SR leukemia = test system: SR leukemia
A498 renal = test system: A498 renal
OVCAR-3 ovarian = test system: OVCAR-3 ovarian
HOP-92 NSCLC = test system: HOP-92 NSCLC
DU-145 prostate = test system: DU-145 prostate
COLO 205 colon = test system: COLO 205 colon
SN12C renal = test system: SN12C renal
KM12 colon = test system: KM12 colon
K-562 leukemia = test system: K-562 leukemia
MALME-3M melanoma = test system: MALME-3M melanoma
SF-295 CNS = test system: SF-295 CNS
HS 578T breast = test system: HS 578T breast
OVCAR-8 ovarian = test system: OVCAR-8 ovarian
HCT-116 colon = test system: HCT-116 colon
M14 melanoma = test system: M14 melanoma
HCT-15 colon = test system: HCT-15 colon
NCI/ADR-RES ovarian = test system: NCI/ADR-RES ovarian
NCI-H460 lung = test system: NCI-H460 lung
BT-549 breast = test system: BT-549 breast
CCRF-CEM leukemia = test system: CCRF-CEM leukemia
MOLT-4 leukemia = test system: MOLT-4 leukemia
PC-3 prostate = test system: PC-3 prostate
MCF7 breast = test system: MCF7 breast
RPMI-8226 leukemia = test system: RPMI-8226 leukemia
T-47D breast = test system: T-47D breast
HL-60(TB) leukemia = test system: HL-60(TB) leukemia
NCI-H23 lung = test system: NCI-H23 lung
NCI-H226 lung = test system: NCI-H226 lung
UO-31 renal = test system: UO-31 renal
A549 NSCLC = test system: A549 NSCLC
SF-539 CNS = test system: SF-539 CNS
OVCAR-4 ovarian = test system: OVCAR-4 ovarian
U251 CNS = test system: U251 CNS
SK-MEL-2 melanoma = test system: SK-MEL-2 melanoma
TK-10 renal = test system: TK-10 renal
SK-MEL-28 melanoma = test system: SK-MEL-28 melanoma
EKVX NSCLC = test system: EKVX NSCLC
UACC-257 melanoma = test system: UACC-257 melanoma
ACHN renal = test system: ACHN renal
SNB-19 CNS = test system: SNB-19 CNS
NCI-H522 lung = test system: NCI-H522 lung
HT29 colon = test system: HT29 colon
SF-268 CNS = test system: SF-268 CNS
SW-620 colon = test system: SW-620 colon
MDA-MB-231 breast = test system: MDA-MB-231 breast
UACC-62 melanoma = test system: UACC-62 melanoma
HOP-62 NSCLC = test system: HOP-62 NSCLC
IGROV1 ovarian = test system: IGROV1 ovarian
MDA-MB-435 = test system: MDA-MB-435
SNB-75 CNS = test system: SNB-75 CNS
OVCAR-5 ovarian = test system: OVCAR-5 ovarian

Q: For `S=C1NNC(=S)NN1`, which TGI (786-0 renal) is on record?
A: > 1000 nM

Q: And the TGI (HCC-2998 colon)?
A: > 1000 nM

Q: And the TGI (MDA-N)?
A: > 1000 nM

Q: And the TGI (SK-OV-3 ovarian)?
A: > 1000 nM

Q: What about the TGI (SK-MEL-5 melanoma) of the same compound?
A: > 1000 nM

Q: And the TGI (CAKI-1 renal)?
A: 475 nM

Q: And the TGI (LOX IMVI melanoma)?
A: 328 nM

Q: And the TGI (SR leukemia)?
A: 671 nM

Q: What about the TGI (A498 renal) of the same compound?
A: > 1000 nM

Q: What about the TGI (OVCAR-3 ovarian) of the same compound?
A: > 1000 nM

Q: And the TGI (HOP-92 NSCLC)?
A: > 1000 nM

Q: What about the TGI (DU-145 prostate) of the same compound?
A: > 1000 nM

Q: What about the TGI (COLO 205 colon) of the same compound?
A: > 1000 nM

Q: What about the TGI (SN12C renal) of the same compound?
A: 354 nM

Q: What about the TGI (KM12 colon) of the same compound?
A: > 1000 nM

Q: What about the TGI (K-562 leukemia) of the same compound?
A: 478 nM

Q: What about the TGI (MALME-3M melanoma) of the same compound?
A: > 1000 nM

Q: What about the TGI (SF-295 CNS) of the same compound?
A: 486 nM

Q: And the TGI (HS 578T breast)?
A: > 1000 nM

Q: What about the TGI (OVCAR-8 ovarian) of the same compound?
A: > 1000 nM

Q: What about the TGI (HCT-116 colon) of the same compound?
A: > 1000 nM

Q: And the TGI (M14 melanoma)?
A: > 1000 nM

Q: And the TGI (HCT-15 colon)?
A: > 1000 nM

Q: What about the TGI (NCI/ADR-RES ovarian) of the same compound?
A: > 1000 nM

Q: What about the TGI (NCI-H460 lung) of the same compound?
A: > 1000 nM

Q: And the TGI (BT-549 breast)?
A: > 1000 nM

Q: What about the TGI (CCRF-CEM leukemia) of the same compound?
A: > 1000 nM

Q: And the TGI (MOLT-4 leukemia)?
A: 898 nM

Q: And the TGI (PC-3 prostate)?
A: > 1000 nM

Q: What about the TGI (MCF7 breast) of the same compound?
A: > 1000 nM

Q: And the TGI (RPMI-8226 leukemia)?
A: > 1000 nM

Q: What about the TGI (T-47D breast) of the same compound?
A: > 1000 nM

Q: What about the TGI (HL-60(TB) leukemia) of the same compound?
A: > 1000 nM

Q: What about the TGI (NCI-H23 lung) of the same compound?
A: > 1000 nM

Q: What about the TGI (NCI-H226 lung) of the same compound?
A: > 1000 nM

Q: What about the TGI (UO-31 renal) of the same compound?
A: > 1000 nM

Q: What about the TGI (A549 NSCLC) of the same compound?
A: > 1000 nM

Q: What about the TGI (SF-539 CNS) of the same compound?
A: > 1000 nM

Q: What about the TGI (OVCAR-4 ovarian) of the same compound?
A: > 1000 nM

Q: What about the TGI (U251 CNS) of the same compound?
A: > 1000 nM

Q: And the TGI (SK-MEL-2 melanoma)?
A: > 1000 nM

Q: And the TGI (TK-10 renal)?
A: > 1000 nM

Q: And the TGI (SK-MEL-28 melanoma)?
A: > 1000 nM

Q: And the TGI (EKVX NSCLC)?
A: > 1000 nM

Q: And the TGI (UACC-257 melanoma)?
A: > 1000 nM

Q: And the TGI (ACHN renal)?
A: > 1000 nM

Q: What about the TGI (SNB-19 CNS) of the same compound?
A: > 1000 nM

Q: What about the TGI (NCI-H522 lung) of the same compound?
A: > 1000 nM

Q: What about the TGI (HT29 colon) of the same compound?
A: > 1000 nM

Q: And the TGI (SF-268 CNS)?
A: > 1000 nM

Q: What about the TGI (SW-620 colon) of the same compound?
A: > 1000 nM

Q: What about the TGI (MDA-MB-231 breast) of the same compound?
A: > 1000 nM

Q: And the TGI (UACC-62 melanoma)?
A: > 1000 nM

Q: And the TGI (HOP-62 NSCLC)?
A: > 1000 nM

Q: And the TGI (IGROV1 ovarian)?
A: > 1000 nM

Q: Which TGI (786-0 renal) does the source give for `N#Cc1nc(C(=O)c2ccccc2)oc1N` here?
A: > 100000 nM

Q: What about the TGI (MDA-N) of the same compound?
A: > 100000 nM

Q: And the TGI (SK-OV-3 ovarian)?
A: > 100000 nM

Q: What about the TGI (SK-MEL-5 melanoma) of the same compound?
A: > 100000 nM

Q: What about the TGI (CAKI-1 renal) of the same compound?
A: > 100000 nM

Q: What about the TGI (LOX IMVI melanoma) of the same compound?
A: > 100000 nM

Q: And the TGI (MDA-MB-435)?
A: > 100000 nM

Q: And the TGI (A498 renal)?
A: > 100000 nM

Q: And the TGI (HOP-92 NSCLC)?
A: > 100000 nM

Q: What about the TGI (DU-145 prostate) of the same compound?
A: > 100000 nM

Q: And the TGI (SN12C renal)?
A: > 100000 nM

Q: And the TGI (KM12 colon)?
A: > 100000 nM

Q: What about the TGI (K-562 leukemia) of the same compound?
A: > 100000 nM

Q: And the TGI (HS 578T breast)?
A: > 100000 nM

Q: And the TGI (OVCAR-8 ovarian)?
A: > 100000 nM

Q: And the TGI (HCT-116 colon)?
A: > 100000 nM

Q: What about the TGI (M14 melanoma) of the same compound?
A: > 100000 nM

Q: And the TGI (SNB-75 CNS)?
A: 8450 nM

Q: And the TGI (HCT-15 colon)?
A: > 100000 nM

Q: What about the TGI (CCRF-CEM leukemia) of the same compound?
A: > 100000 nM

Q: And the TGI (MOLT-4 leukemia)?
A: > 100000 nM

Q: What about the TGI (PC-3 prostate) of the same compound?
A: > 100000 nM

Q: And the TGI (MCF7 breast)?
A: > 100000 nM

Q: And the TGI (RPMI-8226 leukemia)?
A: > 100000 nM

Q: And the TGI (HL-60(TB) leukemia)?
A: > 100000 nM

Q: And the TGI (A549 NSCLC)?
A: > 100000 nM

Q: And the TGI (OVCAR-4 ovarian)?
A: > 100000 nM

Q: What about the TGI (U251 CNS) of the same compound?
A: > 100000 nM

Q: And the TGI (SK-MEL-2 melanoma)?
A: > 100000 nM

Q: And the TGI (TK-10 renal)?
A: > 100000 nM

Q: And the TGI (OVCAR-5 ovarian)?
A: > 100000 nM

Q: And the TGI (SK-MEL-28 melanoma)?
A: > 100000 nM

Q: And the TGI (EKVX NSCLC)?
A: > 100000 nM

Q: And the TGI (UACC-257 melanoma)?
A: > 100000 nM

Q: What about the TGI (ACHN renal) of the same compound?
A: > 100000 nM

Q: And the TGI (SNB-19 CNS)?
A: > 100000 nM

Q: What about the TGI (HT29 colon) of the same compound?
A: > 100000 nM

Q: And the TGI (SF-268 CNS)?
A: > 100000 nM

Q: And the TGI (SW-620 colon)?
A: > 100000 nM

Q: And the TGI (MDA-MB-231 breast)?
A: > 100000 nM

Q: What about the TGI (UACC-62 melanoma) of the same compound?
A: > 100000 nM

Q: What about the TGI (HOP-62 NSCLC) of the same compound?
A: > 100000 nM

Q: And the TGI (IGROV1 ovarian)?
A: > 100000 nM
